Experimental data as given in US7741493B2, “Heterocyclic compounds as P2X7 ion channel blockers” (Aventis Pharmaceuticals Inc., priority 2003, dated 2010).
“And” between values parts separate entries of the source, which are not always exact repeats. Equal values may be shown once. Where a name gives a salt, the structure may show the parent alone.

Molecular target: T1, P2X7 (Homo sapiens, UniProt Q99572)
T1 sequence (Q99572 1-595): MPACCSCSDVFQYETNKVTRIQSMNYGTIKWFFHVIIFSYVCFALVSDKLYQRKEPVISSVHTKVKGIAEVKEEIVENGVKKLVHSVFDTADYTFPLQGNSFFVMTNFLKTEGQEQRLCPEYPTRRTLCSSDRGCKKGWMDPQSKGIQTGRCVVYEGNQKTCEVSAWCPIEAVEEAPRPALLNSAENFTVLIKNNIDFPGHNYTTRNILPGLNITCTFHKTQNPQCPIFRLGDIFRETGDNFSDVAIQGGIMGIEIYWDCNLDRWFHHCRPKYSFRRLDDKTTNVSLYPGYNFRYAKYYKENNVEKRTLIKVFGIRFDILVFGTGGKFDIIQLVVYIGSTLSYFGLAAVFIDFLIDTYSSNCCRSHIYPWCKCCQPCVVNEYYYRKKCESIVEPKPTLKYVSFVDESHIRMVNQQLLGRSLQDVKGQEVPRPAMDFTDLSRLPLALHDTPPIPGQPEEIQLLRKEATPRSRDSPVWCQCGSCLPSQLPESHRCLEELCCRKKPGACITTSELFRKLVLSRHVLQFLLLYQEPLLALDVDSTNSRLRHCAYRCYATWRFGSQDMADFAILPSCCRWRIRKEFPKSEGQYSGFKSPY
Assay: YO-PRO-1 dye uptake assay in U373 cells stably expressing P2X7
Assay type: cell-based
Design: The complete open reading frame of human P2X7 was amplified from Incyte clone 148057; expressed in transfected cells
Conditions: dye uptake through P2X7, U373 cells, 300 μM BzATP, 5 μM YO-PRO-1, test compounds 30 nM to 3 μM; read-out: IC50
How it was run: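 U373 cells stably expressing human P2X7 preincubated 20 min at 37° C. with compound (30 nM to 3 μM) in Mg/Ca-free HBSS. YO-PRO-1 (5 μM final) and BzATP (300 μM final) then added for 1.5 h at 37° C.; dye-uptake fluorescence compared with compound-free control.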

| IC50 | SMILES |
| --- | --- |
| 0.503 µM | Brc1ccccc1CNC1=N[C@@H](c2ccccc2)[C@@H](c2ccccc2)N1 [cis-4,5-diphenyl-2-(2-bromobenzyl)amino-4,5-dihydro-1H-imidazole] |
| 0.577 µM | Fc1ccccc1CC1=N[C@H](c2ccccc2)[C@H](c2ccccc2)N1 [cis-4,5-diphenyl-2-(2-fluorobenzyl)-4,5-dihydro-1H-imidazole] |
| 0.042 µM | Cc1ccccc1CCC1=N[C@H](c2ccccc2)[C@H](c2ccccc2)N1 [cis-4,5-diphenyl-2-(2-(2-methylphenyl)ethyl)-4,5-dihydro-1H-imidazole] |
| 0.594 µM | Cc1ccc(F)c(CC2=N[C@@H](c3ccccc3)[C@@H](c3ccccc3)N2)c1F [trifluoroacetate] |
| 0.142 µM | Fc1ccc(F)c(CC2=N[C@@H](c3ccccc3)[C@@H](c3ccccc3)N2)c1 [trifluoroacetate] |
| 0.083 µM and 0.08 µM | Cc1ccc(CC2=N[C@H](c3ccccc3)[C@H](c3ccccc3)N2)cc1 [cis-4,5-diphenyl-2-(4-methylbenzyl)-4,5-dihydro-1H-imidazole] |
| 0.54 µM | c1ccc(CCCC2=N[C@H](c3ccccc3)[C@H](c3ccccc3)N2)cc1 [2-[3-phenyl-propyl]-cis-4,5-diphenyl-4,5-dihydro-1H-imidazole trifluoroacetate] |
| 0.274 µM | Fc1cccc(COCC2=N[C@@H](c3ccccc3)[C@@H](c3ccccc3)N2)c1 [2-[(3-Fluorobenzyloxy)methyl]-cis-4,5-diphenyl-4,5-dihydro-1H-imidazole hydrochloride] |
| 0.163 µM and 0.16 µM | Clc1ccccc1CC1=N[C@H](c2ccccc2)[C@H](c2ccccc2)N1 [cis-4,5-diphenyl-2-(2-chlorobenzyl)-4,5-dihydro-1H-imidazole] |
| 0.269 µM and 0.27 µM | Clc1ccc(CC2=N[C@@H](c3ccccc3)[C@@H](c3ccccc3)N2)cc1 [cis-4,5-diphenyl-2-(4-chlorobenzyl)-4,5-dihydro-1H-imidazole] |
| 0.229 µM | Cc1cccc(CCC2=N[C@@H](c3ccccc3)[C@@H](c3ccccc3)N2)c1 [2-[2-(3-Methylphenyl)ethyl]-cis-4,5-diphenyl-4,5-dihydro-1H-imidazole trifluoroacetate] |
| 0.24 µM | c1ccc([C@H]2NC(CC3Cc4ccccc4C3)=N[C@H]2c2ccccc2)cc1 [2-indan-2-ylmethyl-cis-4,5-diphenyl-4,5-dihydro-1H-imidazole trifluoroacetate] |
| 0.449 µM | Cc1ccccc1CSC1=N[C@@H](c2ccccc2)[C@@H](c2ccccc2)N1 [cis-4,5-diphenyl-2-(2-methylbenzyl)thio-4,5-dihydro-1H-imidazole] |
| 0.819 µM | Fc1ccccc1CSC1=N[C@@H](c2ccccc2)[C@@H](c2ccccc2)N1 [cis-4,5-diphenyl-2-(2-fluorobenzyl)thio-4,5-dihydro-1H-imidazole] |
| 0.042 µM | Fc1ccc(CC2=N[C@@H](c3ccccc3)[C@@H](c3ccccc3)N2)c(F)c1 [2-(2,4-Difluorobenzyl)-cis-4,5-diphenyl-4,5-dihydro-1H-imidazole trifluoroacetate] |
| 0.122 µM | Fc1ccc(CCC2=N[C@H](c3ccccc3)[C@H](c3ccccc3)N2)cc1F [2-[2-(3,4-Difluorophenyl)ethyl]-cis-4,5-diphenyl-4,5-dihydro-1H-imidazole] |
| 0.409 µM | Fc1ccccc1CNC1=N[C@@H](c2ccccc2)[C@@H](c2ccccc2)N1 [cis-4,5-diphenyl-2-(2-fluorobenzyl)amino-4,5-dihydro-1H-imidazole] |
| 0.93 µM | Fc1cccc(CC2=N[C@@H](c3ccccc3)[C@@H](c3ccccc3)N2)c1F [2-(2,3-Difluorobenzyl)-cis-4,5-diphenyl-4,5-dihydro-1H-imidazole trifluoroacetate] |
| 0.415 µM | Cc1cccc(COCC2=N[C@@H](c3ccccc3)[C@@H](c3ccccc3)N2)c1 [2-[(3-Methylbenzyloxy)methyl]-cis-4,5-diphenyl-4,5-dihydro-1H-imidazole hydrochloride] |

Second part, the molecule before the results:

| SMILES | IC50 |
| --- | --- |
| Fc1ccccc1[C@H]1NC(NCc2ccccc2)=N[C@H]1c1ccccc1F [(cis-4,5-bis-(2-Fluorophenyl)-4,5-dihydro-1H-imidazol-2-yl)-benzylamine hydrochloride] | 0.531 µM |
| Fc1cccc(CCC2=N[C@@H](c3cccc(F)c3)[C@@H](c3cccc(F)c3)N2)c1 [2-[2-(3-Fluorophenyl)ethyl]-cis-4,5-bis-(3-fluorophenyl)-4,5-dihydro-1H-imidazole trifluoroacetate] | 0.079 µM |
| C[C@@]1(c2ccccc2)N=C(COC2CCC2)N[C@@H]1c1ccccc1 (relative stereo) [2-[(Cyclobutoxy)methyl]-cis-4,5-diphenyl-4-methyl-4,5-dihydro-1H-imidazole trifluoroacetate] | 0.722 µM |
| Fc1ccc(CNC2=N[C@@H](c3ccccc3)[C@@H](c3ccccc3)N2)c(F)c1 [cis-4,5-diphenyl-2-(2,4-difluorobenzyl)amino-4,5-dihydro-1H-imidazole] | 0.289 µM |
| Fc1cccc(CNC2=N[C@@H](c3ccccc3)[C@@H](c3ccccc3)N2)c1 [(cis-4,5-Diphenyl-4,5-dihydro-1H-imidazol-2-yl)-(3-fluorobenzyl)amine hydrochloride] | 0.089 µM |
| Fc1ccc(CNC2=N[C@@H](c3ccccc3)[C@@H](c3ccccc3)N2)c(Cl)c1 [cis-4,5-diphenyl-2-(2-chloro-4-fluorobenzyl)amino-4,5-dihydro-1H-imidazole] | 0.247 µM |
| COC(C1=N[C@@H](c2ccccc2)[C@@H](c2ccccc2)N1)c1ccccc1 (stereo partly drawn) [cis-4,5-diphenyl-2-(methoxy-phenyl-methyl)-4,5-dihydro-1H-imidazole] | 0.101 µM |
| C[C@]1(c2ccccc2)N=C(Cc2ccc(F)c(F)c2)N[C@H]1c1ccccc1 (relative stereo) [2-(3,4-Difluorobenzyl)-cis-4,5-diphenyl-4-methyl-4,5-dihydro-1H-imidazole trifluoroacetate] | 0.019 µM |
| C[C@@]1(c2ccc(F)cc2)N=C(NCc2cccc(F)c2)N[C@@H]1c1ccc(F)cc1 | 0.353 µM |
| Fc1ccc(CNC2=N[C@@H](c3ccc(F)cc3)[C@@H](c3ccc(F)cc3)N2)cc1 | 0.338 µM |
| C[C@]1(c2ccccc2)N=C(OCC2CCCCC2)N[C@H]1c1ccccc1 (relative stereo) [2-(Cyclohexylmethoxy)-cis-4,5-diphenyl-4-methyl-4,5-dihydro-1H-imidazole trifluoroacetate] | 0.275 µM |
| C[C@@]1(c2cccc(F)c2)N=C(NCc2ccc(F)cc2)N[C@@H]1c1cccc(F)c1 | 0.037 µM |
| CC(C)(C1=N[C@@H](c2ccccc2)[C@@H](c2ccccc2)N1)c1ccc(Cl)cc1 | 0.537 µM |
| Fc1cccc(CNC2=N[C@@H](c3ccccc3Br)[C@@H](c3ccccc3Br)N2)c1 [[cis-4,5-bis-(2-Bromophenyl)-4,5-dihydro-1H-imidazol-2-yl]-(3-fluorobenzyl)amine hydrochloride] | 0.782 µM |
| Fc1ccc(CNC2=N[C@@H](c3ccccc3Cl)[C@@H](c3ccccc3Cl)N2)cc1 [[cis-4,5-bis-(2-Chlorophenyl)-4,5-dihydro-1H-imidazol-2-yl]-(4-fluorobenzyl)amine hydrochloride] | 0.624 µM |
| Fc1ccc(CNC2=N[C@@H](c3ccccc3)[C@@H](c3ccccc3)N2)cc1F [cis-4,5-diphenyl-2-[(3,4-difluorobenzyl)amino]-4,5-dihydro-1H-imidazole] | 0.065 µM |
| Fc1ccc(CC2=N[C@@H](c3ccccc3)[C@@H](c3ccccc3)N2)cc1F [2-(3,4-Difluorobenzyl)-cis-4,5-diphenyl-4,5-dihydro-1H-imidazole trifluoroacetate] | 0.024 µM |
| Fc1ccc(CNC2=N[C@@H](c3ccccc3F)[C@@H](c3ccccc3F)N2)cc1 [(cis-4,5-bis-(2-Fluorophenyl)-4,5-dihydro-1H-imidazol-2-yl)-(4-fluorobenzyl)amine hydrochloride] | 0.39 µM |
| Fc1cccc(OCC2=N[C@@H](c3cccc(F)c3)[C@@H](c3cccc(F)c3)N2)c1 [2-[(3-Fluorophenoxy)methyl]-cis-4,5-bis-(3-fluorophenyl)-4,5-dihydro-1H-imidazole] | 0.316 µM |
| C[C@@]1(c2ccccc2)N=C(COC2CCOc3ccccc32)N[C@@H]1c1ccccc1 (stereo partly shown) | 0.49 µM |
| C[C@]1(c2ccccc2)N=C(Cc2ccc(F)cc2)N[C@H]1c1ccccc1 (relative stereo) [2-(4-Fluorobenzyl)-cis-4,5-diphenyl-4-methyl-4,5-dihydro-1H-imidazole trifluoroacetate] | 0.044 µM |
| c1ccc(SCC2=N[C@@H](c3ccccc3)[C@@H](c3cccnc3)N2)cc1 (relative stereo) [ditrifluoroacetate] | 0.866 µM |
| Fc1cccc([C@H]2NC(COc3ccccc3F)=N[C@H]2c2cccc(F)c2)c1 [2-[(2-Fluorophenoxy)methyl]-cis-4,5-bis-(3-fluorophenyl)-4,5-dihydro-1H-imidazole] | 0.834 µM |
| Clc1cccc(CNC2=N[C@@H](c3ccccc3)[C@@H](c3ccccc3)N2)c1 [cis-4,5-diphenyl-2-(3-chlorobenzyl)amino-4,5-dihydro-1H-imidazole] | 0.164 µM |
